# Reference: EP0576227A2, “2'-Deoxy-2',2'-difluoro(2,6,8-substituted) purine nucleosides having anti-viral and anti-cancer activity and intermediates” (ELI LILLY AND COMPANY, priority 1992, dated 1993)
# Legend:
# [1] = test system: human leukemia cells (CCRF-CEM cell line); test: Growth inhibition of human leukemia cells (CCRF-CEM cytotoxicity screen); format: cell-based; settings: Homo sapiens, CCRF-CEM
# Description: In another aspect, the invention provides a method of treating susceptible neoplasms in mammals comprising administering to a mammal in need of such treatment a pharmaceutically effective amount of a compound of formula (I). […] The treatment contemplated by the present method includes both medical therapeutic and prophylactic treatment, as appropriate. The specific dosage level of the compound administered according to this invention will, of course, be determined by the circumstances surrounding the case, including, for example, the particular compound administered, the route of administration, and the condition being treated. The compounds are effectively administered orally, topically, or parenterally. […] The representative compounds of formula (I) employed in the present invention are cytotoxic as they inhibit the growth of rapidly dividing human leukemia cells (CCRF-CEM cell line). Table 1 below gives the results of testing several compounds representative of formula (I).
# [2] = test system: Hepatitis B Virus; test: Hepatitis B Virus Test (HBV DNA in supernatant of Hep10A cells, PCR / Southern blot); format: cell-based, human Hepatitis B Virus (HBV); settings: 240 h
# Description: Plasmids were constructed using standard recombinant DNA techniques; see Sambrook, J., et al., Molecular Cloning: A Laboratory Manual, 2nd Edition (1989), Cold Spring Harbor Press, Cold Spring Harbor, NY. Plasmid pTHBV contains a head-to-tail dimer of the human Hepatitis B Virus (HBV) genome, subtype adw, clone into the EcoR I site of pUC9. […] and subcloned into the Sal I site of pTHBV after a two base fill-in reaction with the Klenow fragment of E. coli DNA polymerase I.
# HepG2 cells (human hepatoblastoma, ATCC HB 8065) were routinely passaged in growth medium consisting of EARLE'S minimal essential media (Grand Island Biological Company (GIBCO) Bethesda Research Laboratories (BRL), Life Technologies, Inc., Gathersburg, MD.) supplemented with sodium pyruvate, 10 percent fetal bovine serum, 100 units/ml penicillin, and 100 µg/ml streptomycin. Hep10A cells were derived from HepG2 cells. Briefly, HepG2 cells were seeded into 60 mm culture dishes in growth medium, and when approximately 50 percent confluent, were transfected with pTHBVneo using the calcium phosphate precipitation method described by Graham, F.L. and Van der Eb in Virology, 52, p 456-467 (1973). After four hours of post-transfection, the cells were shocked with 10 percent dimethylsulfoxide and 20 percent glucose for 5 minutes, after which they were allowed to recover for 24 horus. The transfected cells were passaged and reseeded in the presence of growth medium containing 800 µg/ml geneticin. The cells were monitored for the appearance of geneticin resistant cells. A genecitin resistant cell line was established, and routinely passaged in growth medium containing 400 µg/ml geneticin. This cell line will be referred to as Hep10A.
# Hep10A cells were seeded into 96-well microtiter plates at a density of approximately 50,000 cells per well, allowed to grow to confluence, and maintained at confluence for 2 to 4 days to allow Hepatitus B Virus derivative HBV DNA levels to stabilize; see Sells, M.A., et al., J. Virol., 62, p 2836-2844 (1987) and Korba, B.E., et al., Antiviral Res., 15, p 217-228 (1991). At this time, cells were treated with 2'-deoxy-2'-fluoroarabino-5-iodouridine (FIAU) and the compound of Example 5 for 10 days, with daily changes of media containing fresh drug. FIAU was used as a positive control. On day 10, culture supernatant samples were taken and stored at 4°C until needed. PCR analysis was performed on supernatant samples using appropriate primers to amplify a 477 base pair fragment from the "a" determinant of the surface antigen gene of HBV subtype adw. Following eletrophoresis through agarose gels, the DNA was transferred to nylon membranes (Optiblot™, IBI, New Haven, CT) by capillary action (Southern, 1975) using 1X saline sodium citrate (SSC) (1X SSC=0.15 M NaCl, 0.015 M sodium citrate). After baking in vacuo for 30 minutes, the blots were hybridized for 15 to 18 hours to 1x10⁶ cpm/ml of […] the method of random priming (Feinberg and Vogelstein, 1983). Hybridization was carried out at 42°C using 50 percent N,N-dimethylformamide, 6X saline sodium phosphate ethylenediamine tetraacetic acid (SSPE), 1.0 percent sodium dodyl sulfate (SDS), and 50 µg/ml salmon sperm DNA (1X SSPE=0.18 M NaCl; […] NaH₂PO₄, pH 7.4; 1 mmol ethylene diamine tetraacetic acid (EDTA)). The hybridized blots were washed as follows: twice in 2X SSC/0.1 percent SDS at room temperature for 1 hour, once in 0.1X SSC/0.1 percent SDS at room temperature for 30 minutes, and once in 0.1x SSC/0.1 percent supplemented with SDS at 65°C for 15 minutes. The filters were exposed to x-ray film and quantitated by densitometry.
# [3] = read-out: Percent Inhibition at Specified µg/ml conc.
structure (smiles),measurement,setting,value
"CNc1nc(N)nc2c1ncn2[C@@H]1O[C@H](CO)[C@@H](O)C1(F)F [Example 5, 2-deoxy-2,2-difluoro-D-ribofuranosyl-1-β-(2-amino-6-methylaminopurine)]",IC50,[1],0.054 µg/mL
same,inhibition at 0.1 µg/mL,[2]; [3],56.9%
same,inhibition at 1 µg/mL,[2]; [3],81.9%
same,inhibition at 10 µg/mL,[2]; [3],84.6%
same,inhibition at 100 µg/mL,[2]; [3],83.9%
same,IC50,[2]; read-out: concentration required to inhibit HBV DNA replication by 50 percent,< 0.1 µg/mL
